Test results reported in ChEMBL document CHEMBL3797141, “Design, synthesis and preliminary biological evaluation of 4-aminopyrazole derivatives as novel and potent JAKs inhibitors” (Bioorg Med Chem, 2016).

Columns and labels:
[1] = target: Tyrosine-protein kinase JAK2 (Homo sapiens, UniProt O60674); set-up: species or system Sf21
[2] = target: Tyrosine-protein kinase JAK1 (Homo sapiens, UniProt P23458)
[3] = target: T1, Tyrosine-protein kinase JAK3 (Homo sapiens, UniProt P52333)
T1 sequence (P52333 whole entry): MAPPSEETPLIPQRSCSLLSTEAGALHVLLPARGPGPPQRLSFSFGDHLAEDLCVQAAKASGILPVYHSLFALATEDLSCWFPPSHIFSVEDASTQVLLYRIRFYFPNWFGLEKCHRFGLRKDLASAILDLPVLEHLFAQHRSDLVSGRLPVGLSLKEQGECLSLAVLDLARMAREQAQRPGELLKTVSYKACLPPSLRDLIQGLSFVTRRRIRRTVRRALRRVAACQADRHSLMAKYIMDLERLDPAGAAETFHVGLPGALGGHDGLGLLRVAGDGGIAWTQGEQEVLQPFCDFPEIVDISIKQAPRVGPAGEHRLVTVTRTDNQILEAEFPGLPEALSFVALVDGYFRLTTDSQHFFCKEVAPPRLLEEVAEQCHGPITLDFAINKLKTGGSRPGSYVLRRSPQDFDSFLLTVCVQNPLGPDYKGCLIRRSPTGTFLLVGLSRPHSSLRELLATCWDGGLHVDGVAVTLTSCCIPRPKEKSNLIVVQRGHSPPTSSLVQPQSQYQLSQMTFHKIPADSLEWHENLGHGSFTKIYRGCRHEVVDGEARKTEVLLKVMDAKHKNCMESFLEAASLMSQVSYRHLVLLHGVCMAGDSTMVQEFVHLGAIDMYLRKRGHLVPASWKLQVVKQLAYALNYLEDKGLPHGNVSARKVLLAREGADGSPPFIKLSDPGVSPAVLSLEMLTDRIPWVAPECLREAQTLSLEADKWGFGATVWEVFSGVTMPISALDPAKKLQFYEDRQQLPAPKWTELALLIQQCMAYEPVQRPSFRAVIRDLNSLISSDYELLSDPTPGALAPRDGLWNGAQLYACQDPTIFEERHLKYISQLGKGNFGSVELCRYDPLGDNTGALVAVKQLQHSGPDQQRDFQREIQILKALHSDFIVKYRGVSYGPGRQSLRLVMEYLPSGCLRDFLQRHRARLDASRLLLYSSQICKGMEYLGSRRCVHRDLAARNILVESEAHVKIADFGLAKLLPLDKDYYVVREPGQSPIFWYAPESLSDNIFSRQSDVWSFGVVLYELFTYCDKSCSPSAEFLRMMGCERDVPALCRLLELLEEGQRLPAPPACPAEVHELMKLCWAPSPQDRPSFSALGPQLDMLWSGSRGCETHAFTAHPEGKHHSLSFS

Chain of Tyrosine-protein kinase JAK2 (O60674 whole entry): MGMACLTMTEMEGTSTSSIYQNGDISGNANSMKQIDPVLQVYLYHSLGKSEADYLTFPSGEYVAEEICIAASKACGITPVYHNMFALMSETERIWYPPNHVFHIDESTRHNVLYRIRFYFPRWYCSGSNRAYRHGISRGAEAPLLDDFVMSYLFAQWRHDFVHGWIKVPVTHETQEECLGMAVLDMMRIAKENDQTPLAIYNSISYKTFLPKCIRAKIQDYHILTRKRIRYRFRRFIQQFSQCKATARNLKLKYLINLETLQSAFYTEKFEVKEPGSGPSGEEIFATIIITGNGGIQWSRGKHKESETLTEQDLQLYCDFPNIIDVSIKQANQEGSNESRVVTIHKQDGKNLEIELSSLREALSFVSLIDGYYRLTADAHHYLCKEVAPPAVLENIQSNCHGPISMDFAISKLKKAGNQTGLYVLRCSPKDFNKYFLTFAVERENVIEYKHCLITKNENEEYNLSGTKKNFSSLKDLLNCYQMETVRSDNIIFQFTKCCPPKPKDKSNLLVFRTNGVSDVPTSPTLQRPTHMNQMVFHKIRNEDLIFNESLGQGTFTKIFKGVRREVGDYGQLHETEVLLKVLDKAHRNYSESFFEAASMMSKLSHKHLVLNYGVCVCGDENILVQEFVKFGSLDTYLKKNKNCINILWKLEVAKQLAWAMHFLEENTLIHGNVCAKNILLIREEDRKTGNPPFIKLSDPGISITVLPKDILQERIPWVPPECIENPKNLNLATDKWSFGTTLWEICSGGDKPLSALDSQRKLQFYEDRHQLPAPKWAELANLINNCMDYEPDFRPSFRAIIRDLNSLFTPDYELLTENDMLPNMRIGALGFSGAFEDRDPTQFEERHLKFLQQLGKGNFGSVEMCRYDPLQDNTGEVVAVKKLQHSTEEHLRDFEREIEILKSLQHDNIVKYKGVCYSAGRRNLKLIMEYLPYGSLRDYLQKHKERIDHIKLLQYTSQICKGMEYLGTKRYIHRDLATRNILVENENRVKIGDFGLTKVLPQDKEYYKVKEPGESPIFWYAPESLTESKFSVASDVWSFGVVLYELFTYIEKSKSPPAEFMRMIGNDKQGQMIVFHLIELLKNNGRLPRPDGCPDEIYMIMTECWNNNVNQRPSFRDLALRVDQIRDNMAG
Chain of Tyrosine-protein kinase JAK1 (P23458 whole entry): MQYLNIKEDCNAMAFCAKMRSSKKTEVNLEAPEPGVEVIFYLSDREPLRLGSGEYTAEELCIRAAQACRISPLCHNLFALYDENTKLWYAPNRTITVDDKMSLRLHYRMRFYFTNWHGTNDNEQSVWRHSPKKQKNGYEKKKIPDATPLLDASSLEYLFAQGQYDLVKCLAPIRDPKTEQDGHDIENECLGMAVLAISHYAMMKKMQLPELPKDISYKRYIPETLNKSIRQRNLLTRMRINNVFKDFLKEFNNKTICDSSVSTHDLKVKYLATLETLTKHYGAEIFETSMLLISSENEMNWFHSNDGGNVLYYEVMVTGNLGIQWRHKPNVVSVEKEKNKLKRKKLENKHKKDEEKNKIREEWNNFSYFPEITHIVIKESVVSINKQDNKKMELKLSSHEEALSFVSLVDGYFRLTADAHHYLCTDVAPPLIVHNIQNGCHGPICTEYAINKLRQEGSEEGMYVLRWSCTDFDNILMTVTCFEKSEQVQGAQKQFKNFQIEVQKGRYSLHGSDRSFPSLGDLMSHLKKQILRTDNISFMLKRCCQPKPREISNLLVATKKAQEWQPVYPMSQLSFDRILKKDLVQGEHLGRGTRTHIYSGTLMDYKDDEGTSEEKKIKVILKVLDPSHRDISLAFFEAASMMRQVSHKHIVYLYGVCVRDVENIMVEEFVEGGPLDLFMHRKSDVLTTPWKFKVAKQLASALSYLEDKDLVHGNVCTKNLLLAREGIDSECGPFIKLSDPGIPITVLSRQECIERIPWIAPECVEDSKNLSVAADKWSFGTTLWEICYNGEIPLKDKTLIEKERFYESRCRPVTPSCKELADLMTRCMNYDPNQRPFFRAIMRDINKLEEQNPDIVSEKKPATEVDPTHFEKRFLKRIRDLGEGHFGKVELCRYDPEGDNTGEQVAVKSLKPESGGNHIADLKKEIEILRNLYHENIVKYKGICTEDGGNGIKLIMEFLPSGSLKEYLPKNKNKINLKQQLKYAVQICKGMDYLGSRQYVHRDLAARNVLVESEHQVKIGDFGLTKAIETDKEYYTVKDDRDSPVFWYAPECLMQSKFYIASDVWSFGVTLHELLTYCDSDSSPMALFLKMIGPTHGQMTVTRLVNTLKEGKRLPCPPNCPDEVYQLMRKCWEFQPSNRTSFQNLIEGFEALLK

CNc1nc(Nc2cnn(C(CC(N)=O)C3CCCCC3)c2)ncc1C(F)(F)F (stereo not drawn)
IC50 [1]: 98 nM | IC50 [2]: 670 nM | IC50 [3]: 39 nM
